Results on 20 compounds are retold here after US6218379A, “Tricyclic carbacephems” (Hoffmann-la Roche Inc., priority 1996, dated 2001).

Each structure is given as a SMILES string. ≈ marks a conversion by molar mass, not a printed value. Where a name gives a salt, the structure may show the parent alone.

Assay [1] deals with Citrobacter freundii 1982. As to the kind of experiment: Antibacterial activity in vitro (MIC) against Citrobacter freundii 1982. Format: cell-based. The following applies: read-out: MIC C. freundii 1982. The method, then:
(§1) The minimum inhibitory concentration in vitro (MIC in μg/ml) of a compound of formula I against Citrobacter freundii 1982 and Staphylococcus aureus 887 is measured and compiled in Table 2.

Assay [2] relates to Staphylococcus aureus 887. As to the kind of experiment: Antibacterial activity in vitro (MIC) against Staphylococcus aureus 887. Format: cell-based. The following applies: read-out: MIC S. aureus 887. Here is the method:
as §1

`O=C(O)C1=C(/C=C2\CCN(CC(F)(F)F)C2=O)C[C@@H]2CN[C@@H]3C(=O)N1[C@H]23` [Example 14, (E)-(1aS,3aR,6bR)-1-Oxo-5-[2-oxo-1-(2,2,2-trifluoro-ethyl)-pyrrolidin-3-ylidenemethyl]-1a,2,3,3a,4,6b-hexahydro-1H-2,6a-diaza-cyclobut[cd]indene-6-carboxylic acid trifluoroacetate (1:1)]: the MIC was 8 µg/mL in assay [1] and 16 µg/mL in assay [2].

For `O=C(O)C1=C(/C=C2\CCN(Cc3ccc([N+](=O)[O-])cc3)C2=O)C[C@@H]2CN[C@@H]3C(=O)N1[C@H]23` [Example 15, (E)-(1aS,3aR,6bR)-1-Oxo-5-[2-oxo-1-(4-nitrobenzyl)-pyrrolidin-3-ylidenemethyl]-1a,2,3,3a,4,6b-hexahydro-1H-2,6a-diaza-cyclobut[cd]indene-6-carboxylic acid trifluoroacetate (1:0.77)], the MIC in assay [1] came out at 32 µg/mL; in assay [2], 8 µg/mL.

As for `O=C(O)C1=C(/C=C2\CCN(Cc3cccs3)C2=O)C[C@@H]2CN[C@@H]3C(=O)N1[C@H]23` [Example 16, (E)-(1aS,3aR,6bR)-1-Oxo-5-[2-oxo-1-(thiophen-2-ylmethyl)-pyrrolidin-3-ylidenemethyl]-1a,2,3,3a,4,6b-hexahydro-1H-2,6a-diaza-cyclobut[cd]indene-6-carboxylic acid trifluoroacetate (1:0.75)], the minimum inhibitory concentration (MIC) worked out at 16 µg/mL in assay [1] and 8 µg/mL in assay [2].

Turning to `NC(=O)c1ccc(NC(=O)N2C[C@H]3CC(/C=C4\CCN(CC(F)(F)F)C4=O)=C(C(=O)O)N4C(=O)[C@@H]2[C@@H]34)cc1` [Example 23, (E)-(1aS,3aR,6bR)-2-(4-Carbamoyl-phenylcarbamoyl)-1-oxo-5-[2-oxo-1-(2,2,2-trifluoroethyl)-pyrrolidin-3-ylidenemethyl]-1a,2,3,3a,4,6b-hexahydro-1H-2,6a-diaza-cyclobut[cd]indene-6-carboxylic acid sodium salt (1:1)], the MIC in assay [1] and in assay [2] was 16 µg/mL each time.

For the compound `CC(=O)N1C[C@H]2CC(/C=C3\CCN(c4ccc(O)cc4)C3=O)=C(C(=O)O)N3C(=O)[C@@H]1[C@@H]23` [Example 24, (E)-(1aS,3aR,6bR)-2-Acetyl-1-oxo-5-[2-oxo-1-(4-hydroxyphenyl)-pyrrolidin-3-ylidenemethyl]-1a,2,3,3a,4,6b-hexahydro-1H-2,6a-diaza-cyclobut[cd]indene-6-carboxylic acid sodium salt (1:1)], the MIC in assay [1] and in assay [2] was 1 µg/mL throughout.

As for `CC(=O)N1C[C@H]2CC(/C=C3\CCN(CC(F)(F)F)C3=O)=C(C(=O)O)N3C(=O)[C@@H]1[C@@H]23` [Example 25, (E)-(1aS,3aR,6bR)-2-Acetyl-1-oxo-5-[2-oxo-1-(2,2,2-trifluoroethyl)-pyrrolidin-3-ylidenemethyl]-1a,2,3,3a,4,6b-hexahydro-1H-2,6a-diaza-cyclobut[cd]indene-6-carboxylic acid sodium salt (1:1)], the MIC in assay [1] amounted to 1 µg/mL; in assay [2], 4 µg/mL.

As for `CC(=O)N1C[C@H]2CC(/C=C3\CCN(Cc4ccc([N+](=O)[O-])cc4)C3=O)=C(C(=O)O)N3C(=O)[C@@H]1[C@@H]23` [Example 26, (E)-(1aS,3aR,6bR)-2-Acetyl-1-oxo-5-[2-oxo-1-(4-nitro-benzyl)-pyrrolidin-3-ylidenemethyl]-1a,2,3,3a,4,6b-hexahydro-1H-2,6a-diaza-cyclobut[cd]indene-6-carboxylic acid sodium salt (1:1)], the minimum inhibitory concentration (MIC) in assay [1] came to 8 µg/mL; in assay [2] it was 2 µg/mL.

With `CC(=O)N1C[C@H]2CC(/C=C3\CCN(Cc4cccs4)C3=O)=C(C(=O)O)N3C(=O)[C@@H]1[C@@H]23` [Example 27, (E)-(1aS,3aR,6bR)-2-Acetyl-1-oxo-5-[2-oxo-1-(thiophen-2-ylmethyl)-pyrrolidin-3-ylidenemethyl]-1a,2,3,3a,4,6b-hexahydro-1H-2,6a-diaza-cyclobut[cd]indene-6-carboxylic acid sodium salt (1:1)], the MIC in assay [1] was 4 µg/mL; in assay [2], 2 µg/mL.

On to `CC(=O)N1C[C@H]2CC(/C=C3\CCN(CC(C)C)C3=O)=C(C(=O)O)N3C(=O)[C@@H]1[C@@H]23` [Example 28, (E)-(1aS,3aR,6bR)-2-Acetyl-1-oxo-5-[2-oxo-1-isobutyl-pyrrolidin-3-ylidenemethyl]-1a,2,3,3a,4,6b-hexahydro-1H-2,6a-diaza-cyclobut[cd]indene-6-carboxylic acid sodium salt (1:1)], for which the MIC turned out to be 2 µg/mL in assay [1] and 8 µg/mL in assay [2].

For the compound `CC(=O)N1C[C@H]2CC(/C=C3\CCN(C4CC4)C3=O)=C(C(=O)O)N3C(=O)[C@@H]1[C@@H]23` [Example 29, (E)-(1aS,3aR,6bR)-2-Acetyl-1-oxo-5-[1-cyclopropyl-2-oxo-pyrrolidin-3-ylidenemethyl]-1a,2,3,3a,4,6b-hexahydro-1H-2,6a-diaza-cyclobut[cd]indene-6-carboxylic acid sodium salt (1:1)], the MIC in assay [1] was determined as 1 µg/mL; in assay [2], 16 µg/mL.

As for `CC(=O)N1C[C@H]2CC(/C=C3\CCN(c4cccc([N+](=O)[O-])c4)C3=O)=C(C(=O)O)N3C(=O)[C@@H]1[C@@H]23` [Example 30, (E)-(1aS,3aR,6bR)-2-Acetyl-1-oxo-5-[1-(3-nitrophenyl)-2-oxo-pyrrolidin-3-ylidenemethyl]-1a,2,3,3a,4,6b-hexahydro-1H-2,6a-diaza-cyclobut[cd]indene-6-carboxylic acid sodium salt (1:1)], the results for the minimum inhibitory concentration (MIC) in assay [1] and in assay [2] were 4 µg/mL and 1 µg/mL, respectively.

`CC(=O)N1C[C@H]2CC(/C=C3\CCN(c4ccccc4)C3=O)=C(C(=O)O)N3C(=O)[C@@H]1[C@@H]23` [Example 31, (E)-(1aS,3aR,6bR)-2-Acetyl-1-oxo-5-[2-oxo-1-phenyl-pyrrolidin-3-ylidenemethyl]-1a,2,3,3a,4,6b-hexahydro-1H-2,6a-diaza-cyclobut[cd]indene-6-carboxylic acid sodium salt (1:1)]: the MIC was found to be 8 µg/mL in assay [1] and 2 µg/mL in assay [2].

Turning to `CCOC(=O)N1CCC(N2CC/C(=C\C3=C(C(=O)O)N4C(=O)[C@@H]5[C@H]4[C@H](C3)CN5C(C)=O)C2=O)CC1` [Example 32, (E)-(1aS,3aR,6bR)-2-Acetyl-1-oxo-5-[1-(1-ethoxycarbonyl-piperidin-4-yl)-2-oxo-pyrrolidin-3-ylidenemethyl]-1a,2,3,3a,4,6b-hexahydro-1H-2,6a-diaza-cyclobut[cd]indene-6-carboxylic acid sodium salt (1:1)], the values for the MIC in assay [1] and in assay [2] were 62 µg/mL and 8 µg/mL, respectively.

Take `CC(=O)N1C[C@H]2CC(/C=C3\CCN(c4cccnc4)C3=O)=C(C(=O)O)N3C(=O)[C@@H]1[C@@H]23` [Example 33, (E)-(1aS,3aR,6bR)-2-Acetyl-1-oxo-5-[2-oxo-1-pyridin-3-yl-pyrrolidin-3-ylidenemethyl]-1a,2,3,3a,4,6b-hexahydro-1H-2,6a-diaza-cyclobut[cd]indene-6-carboxylic acid sodium salt (1:1)]: the MIC in assay [1] is 1 µg/mL; in assay [2], 2 µg/mL.

Regarding `O=C(O)C1=C(/C=C2\CCN(c3cccc([N+](=O)[O-])c3)C2=O)C[C@@H]2CN(C(=O)C(F)(F)F)[C@@H]3C(=O)N1[C@H]23` [Example 34, (E)-(1aS,3aR,6bR)-1-Oxo-5-[2-oxo-1-(3-nitro-phenyl)-pyrrolidin-3-ylidenemethyl]-2-trifluoroacetyl-1a,2,3,3a,4,6b-hexahydro-1H-2,6a-diaza-cyclobut[cd]indene-6-carboxylic acid sodium salt (1:1)], the MIC in assay [1] worked out at 8 µg/mL; in assay [2] it was 4 µg/mL.

Turning to `O=C(O)C1=C(/C=C2\CCN(Cc3cccs3)C2=O)C[C@@H]2CN(C(=O)C(F)(F)F)[C@@H]3C(=O)N1[C@H]23` [Example 35, (E)-(1aS,3aR,6bR)-1-Oxo-5-[2-oxo-1-(thiophen-2-yl-methyl)-pyrrolidin-3-ylidenemethyl]-2-trifluoroacetyl-1a,2,3,3a,4,6b-hexahydro-1H-2,6a-diaza-cyclobut[cd]indene-6-carboxylic acid sodium salt (1:1)], the MIC in assay [1] stood at 32 µg/mL; in assay [2], 4 µg/mL.

For `O=C(O)C1=C(/C=C2\CCN(C3CC3)C2=O)C[C@@H]2CN(C(=O)C(F)(F)F)[C@@H]3C(=O)N1[C@H]23` [Example 36, (E)-(1aS,3aR,6bR)-1-Oxo-5-[2-oxo-1-cyclopropyl-pyrrolidin-3-ylidenemethyl]-2-trifluoroacetyl-1a,2,3,3a,4,6b-hexahydro-1H-2,6a-diaza-cyclobut[cd]indene-6-carboxylic acid sodium salt (1:1)], the MIC in assay [1] came out at 8 µg/mL; in assay [2], 4 µg/mL.

Turning to `O=C(O)C1=C(/C=C2\CCN(c3ccccc3)C2=O)C[C@@H]2CN(C(=O)C(F)(F)F)[C@@H]3C(=O)N1[C@H]23` [Example 37, (E)-(1aS,3aR,6bR)-1-Oxo-5-[2-oxo-1-phenyl-pyrrolidin-3-ylidenemethyl]-2-trifluoroacetyl-1a,2,3,3a,4,6b-hexahydro-1H-2,6a-diaza-cyclobut[cd]indene-6-carboxylic acid sodium salt (1:1)], the MIC in assay [1] came to 64 µg/mL; in assay [2] it was 4 µg/mL.

Regarding `O=C(O)C1=C(/C=C2\CCN(c3cccnc3)C2=O)C[C@@H]2CN(C(=O)C(F)(F)F)[C@@H]3C(=O)N1[C@H]23` [Example 38, (E)-(1aS,3aR,6bR)-1-Oxo-5-[2-oxo-1-pyridin-3-yl-pyrrolidin-3-ylidenemethyl]-2-trifluoroacetyl-1a,2,3,3a,4,6b-hexahydro-1H-2,6a-diaza-cyclobut[cd]indene-6-carboxylic acid sodium salt (1:1)], the results for the MIC in assay [1] and in assay [2] were 16 µg/mL and 4 µg/mL, respectively.

In the case of `CC(=O)N1C[C@H]2CC(/C=C3\CCN(c4ccc[n+](Cc5ccccc5)c4)C3=O)=C(C(=O)[O-])N3C(=O)[C@@H]1[C@@H]23` [Example 39, (E)-(1aS,3aR,6bR)-2-Acetyl-5-[1-(1-benzyl-pyridin-1-ium-3-yl)-2-oxo-pyrrolidin-3-ylidenemethyl]-1-oxo-1a,2,3,3a,4,6b-hexahydro-1H-2,6a-diaza-cyclobut[cd]indene-6-carboxylate acid], the MIC in assay [1] is 4 µg/mL (≈ 8.02 µM); in assay [2] it was 2 µg/mL (≈ 4.01 µM).
